In US20180363044A1, “COMPOSITIONS AND METHODS FOR IMPROVING THE THERMAL STABILITY OF NUCLEIC ACID AMPLIFICATION REAGENTS” (Roche Molecular Systems, Inc., priority 2017, published 2018):

Test: Stability study: heat stress storage, UPLC analysis of degradation
Type: physicochemical
Method: Samples containing either 1 mM deoxyadenosine triphosphate (dATP), or 1 mM deoxyadenosine tetraphosphate (dA4P) or 1 mM dATP+1 mM dA4P were suspended in a buffer containing 40% DMSO/0.75M KOAc were stored for 18 hours at either 65° C. The samples were then run in a UPLC column and analyzed for degradation of the starting products.

active substrate remaining (buffer, 18 h, 1 mM) | Compound | active substrate remaining (1 mM in buffer containing 40% DMSO/0.75M KOAc, stored 18 hours at 65° C., UPLC)
 | deoxyadenosine tetraphosphate [dA4P] | approximately 70%
51% | Nc1ncnc2c1ncn2[C@H]1C[C@H](O)[C@@H](COP(=O)(O)OP(=O)(O)OP(=O)(O)O)O1 [dATP, deoxyadenosine triphosphate] | 
